Results from a melting point compilation (Tetko et al.).

SMILES	melting point
CS(=O)(=O)NCC(=O)O	174 to 176 °C
CC(=O)N1CCC(S(=O)(=O)Cl)CC1	95 to 97 °C
O=C(O)CSc1ccc(Cl)cc1[N+](=O)[O-]	159 to 161 °C
CC(=O)Nc1cc(C(=O)O)ccc1C	277 to 279 °C
CC(=O)c1ccc(OC2CCOCC2)cc1	72 to 74 °C
COc1ccc(Br)cc1C(=O)CBr	92 to 94 °C
COc1ccc(O)cc1C(C)=O	78 to 80 °C
O=C(Nc1cnccn1)c1ccc(Br)cc1	195 to 197 °C
CCOC(=O)c1cnc2c(cnn2C)c1Cl	83 to 85 °C
COc1cc(C=O)cc(Br)c1OCc1ccccc1	48 to 50 °C
O=c1[nH]c(CCl)nc2scc(-c3ccc(Cl)cc3)c12	124 to 126 °C
O=C(O)CCS(=O)(=O)c1ccc(Br)cc1	151 to 153 °C
NS(=O)(=O)c1ccc2c(c1)CC(=O)N2	252 to 254 °C
O=C(O)CNC(=O)NC1CC1	179 to 181 °C
CN1CCC2(CC1)NC(=O)NC2=O	283 to 285 °C
CC(=O)N1CCN(c2ccccc2C=O)CC1	86 to 88 °C
Cc1nc(-c2ccccc2)c(N)s1	169 to 171 °C
CNc1nc(-c2ccccc2)no1	124 to 126 °C
Nc1cc(S(=O)(=O)N2CCCC2)ccc1O	163 to 165 °C
N#Cc1cc([N+](=O)[O-])cnc1Cl	119 to 121 °C
O=C(O)CCCNC(=O)c1ccccc1	87 to 89 °C
Cn1cc(-c2ncc(C=O)s2)cn1	141 to 143 °C
NC(=S)Cn1ccc(=O)[nH]c1=O	256 to 258 °C
N#Cc1ccc(C(=O)NN)cc1	195 to 197 °C
N#CC(=Cc1ccco1)C(=O)O	227 to 229 °C

SMILES	melting point
Nc1ncc(Cc2ccccc2F)s1	97 to 99 °C
CC1CCN(C(=O)c2ccc(N)cc2)CC1	118 to 120 °C
Cc1csc(N2CCC(=O)CC2)n1	59 to 61 °C
ClCc1nnc(-c2c(Cl)cccc2Cl)o1	46 to 48 °C
Cc1nc(-c2ccccc2)sc1CCl	84 to 86 °C
COC(=O)c1ccc(-n2cc(C)cn2)c(N)c1	136 to 138 °C
COc1ccccc1NCCC(=O)O	84 to 86 °C
O=[N+]([O-])c1n[nH]cc1Br	193 to 195 °C
NS(=O)(=O)c1ccc([N+](=O)[O-])s1	139 to 141 °C
O=C(O)Cc1coc(-c2ccc(Cl)cc2)n1	191 to 193 °C
Nc1nnc2ccc(Cl)nn12	274 to 276 °C
Cc1cnc2ccccc2c1N	139 to 141 °C
FC(F)(F)CNc1nnc(S)s1	178 to 180 °C
Cc1ccc(-n2c(S)nc3ccccc32)c(C)c1	192 to 194 °C
CC(C)C(=O)NC1(C#N)CCCC1	56 to 58 °C
Cc1nn(Cc2ccccc2)c(C)c1CN	39 to 41 °C
O=C(O)CNC(=O)C=Cc1cccnc1	264 to 266 °C
Nc1cc2c(cc1N)OCCCO2	122 to 124 °C
O=Cc1c(Cl)nc(Cl)n1-c1ccccc1	133 to 135 °C
CCS(=O)(=O)c1ccccc1C(=O)O	49 to 53 °C
NCc1cccnc1O	89 to 91 °C
COCC(C)(O)C(=O)O (centres undefined)	53 to 55 °C
NCc1cccc(NC(=O)C2CC2)c1	96 to 98 °C
Nc1ccc(-n2cncn2)c(F)c1	126 to 128 °C
COc1ccc(-c2csc(N)n2)cc1C	179 to 181 °C

SMILES	melting point
Nc1ccc(OCc2cccc(F)c2)c(F)c1	43 to 45 °C
O=C(NCCO)c1ccccc1C(F)(F)F	61 to 63 °C
CC(C(=O)OCc1ccccc1)S(N)(=O)=O (centres undefined)	83 to 85 °C
COc1ccc(CNS(C)(=O)=O)cc1	89 to 91 °C
O=C(O)CCc1ccc(-c2ccccc2F)o1	117 to 119 °C
Sc1nnc(C2CC2)n1C1CC1	138 to 140 °C
CNc1ncccc1N	108 to 110 °C
CCCOc1cccc(CC(=O)O)c1	88 to 90 °C
O=C(O)c1ccc2c(c1)-c1ccccc1C2	264 to 266 °C
Sc1nnnn1-c1ccc2c(c1)OCCO2	143 to 145 °C
NNC(=O)CC(F)(F)F	90 to 92 °C
CC(=O)Nc1c(C)cccc1C(=O)O	204 to 206 °C
CN1CCN(Cc2cccc(N)c2)CC1	78 to 80 °C
CC(C)(C)OC(=O)N1CCCC(C(C)(C)C(=O)O)C1 (centres undefined)	96 to 98 °C
Cc1ccc(NC(=O)C(=O)O)cc1	170 to 172 °C
O=C(O)C1CCCN(c2ncccc2C(F)(F)F)C1 (centres undefined)	86 to 88 °C
NNc1nc(-c2ccccc2)no1	177 to 179 °C
NCc1ccc(-c2ccc3c(c2)CCO3)cc1	77 to 79 °C
CN(C)CCNS(=O)(=O)c1ccc(Cl)c([N+](=O)[O-])c1	88 to 90 °C
ClCc1noc(-c2ccc(Cl)cc2)n1	79 to 81 °C
O=C(O)c1ccc(NC2CC2)nc1	178 to 180 °C
NCc1ccc(Oc2ccc(F)cc2)nc1	51 to 53 °C
O=C(O)CS(=O)(=O)CC(=O)Nc1cccc(Br)c1	165 to 167 °C
CCOc1oc(-c2ccccc2)nc1C(=O)O	147 to 149 °C
Fc1cc2ncc(Cl)nc2cc1F	91 to 93 °C

SMILES	melting point
O=C1C=CC(=O)N1CCc1ccc(F)cc1	79 to 81 °C
Cn1cc([N+](=O)[O-])c(C(=O)O)n1	162 to 164 °C
CCn1ccnc1C(O)CCc1ccccc1 (centres undefined)	77 to 79 °C
Cc1c(C(=O)O)nnn1-c1ccccc1Cl	165 to 167 °C
O=C(CCl)NC(=O)c1ccccc1	157 to 159 °C
CS(=O)(=O)c1cccc(N)c1	49 to 51 °C
COC(=O)CCNc1ncccc1[N+](=O)[O-]	65 to 67 °C
NNC(=O)CC1CC1	89 to 91 °C
NC(=O)Cc1ccc(Br)cc1	194 to 196 °C
Sc1nc(-c2cc3ccccc3o2)no1	152 to 154 °C
CC(C)c1nn(C2CCS(=O)(=O)C2)cc1C(=O)O (centres undefined)	202 to 204 °C
O=C(O)CCNc1ccccc1	56 to 60 °C
O=C(O)c1cc(-c2cccs2)n(-c2ccccc2)n1	193 to 195 °C
CC(C)(C)OC(=O)NC1(C(=O)O)CCOC(C)(C)C1 (centres undefined)	176 to 178 °C
O=C(O)CC(O)c1cc(Cl)cc(Cl)c1 (centres undefined)	198 to 200 °C
CCC(C)(N)C(=O)O (centres undefined)	276 to 278 °C
CCC1(O)CCC(N)CC1 (centres undefined)	79 to 81 °C
O=c1[nH]ncc2cccnc12	309 to 311 °C
CC(C)(C)OC(=O)Nc1cnc(C(=O)O)cn1	261 to 263 °C
c1ccc(OCCc2nc3ccccc3[nH]2)cc1	136 to 138 °C
Cc1cc(O)cc(=O)n1CCC(=O)O	172 to 174 °C
Cc1ccc(F)c(-c2nc(C(=O)O)no2)c1	107 to 109 °C
N#CCC(=O)c1ccc(F)c(C(F)(F)F)c1	51 to 53 °C
CCCOc1nc(C(=O)O)cc2ccccc12	159 to 161 °C
CC(O)c1ccc2c(c1)Nc1ccccc1S2 (centres undefined)	149 to 151 °C

SMILES	melting point
COc1ccccc1C(N)=S	113 to 115 °C
COc1ccc(Oc2ccc(S(N)(=O)=O)cc2)cc1	169 to 171 °C
COC(=O)Cc1ccccc1O	69 to 71 °C
COC(=O)C(=O)CC(=O)c1c(F)cccc1F	88 to 90 °C
CN(C)c1nc(Cl)c(C=O)s1	109 to 111 °C
O=C(O)c1cc(N2CCOCC2)ccn1	257 to 259 °C
CC(=O)c1cnn(-c2ccc(C#N)cc2)c1C	152 to 154 °C
O=c1[nH]ccc2sccc12	159 to 161 °C
CC(C)C(=O)Nc1ccc(CNC(=O)n2ccnc2)cc1	203 to 205 °C
CCC1SC(N)=NC1=O (centres undefined)	188 to 190 °C
CN1CCN(S(=O)(=O)c2ccc(Cl)c([N+](=O)[O-])c2)CC1	276 to 278 °C
COc1ccc(-c2cc(C(=O)O)n(-c3ccccc3)n2)cc1	190 to 192 °C
CC(C)(C)c1cc(NC(=O)CCl)on1	95 to 97 °C
CCOc1cc(/C=N/O)ccc1O	104 to 106 °C
COC(=O)C1(N)CCS(=O)(=O)CC1	124 to 126 °C
O=C(CO)N1CCCC1	37 to 39 °C
OCc1ccc(O)c(Cl)c1	85 to 87 °C
NC(=S)COc1ccccc1	111 to 115 °C
O=C(O)CCOc1ccc(F)cc1F	76 to 78 °C
COC(=O)c1cn(CCCC#N)nn1	75 to 77 °C
CS(=O)(=O)c1nc2ccccc2[nH]1	188 to 192 °C
CC(CO)NCc1ccccc1Cl (centres undefined)	54 to 56 °C
CCc1cccc(CC(=O)O)c1	58 to 60 °C
CC(=O)N(c1ccc(F)cc1)c1nc(CCl)cs1	127 to 129 °C
Cc1cc(C)cc(-n2[nH]c(-c3ccco3)cc2=N)c1	125 to 127 °C

SMILES	melting point
CNc1sccc1C#N	71 to 73 °C
Cn1ccnc1Sc1ccc(F)cc1N	136 to 138 °C
CSc1nc2[nH]cnc(=O)c2s1	269 to 271 °C
Cc1cc(Br)cc(C)c1C(=O)O	184 to 186 °C
CCOC(=O)c1cnn(-c2ccc(C(=O)O)cc2)c1C	201 to 203 °C
Cc1cccc(C=C(C(=O)O)c2cccs2)c1	158 to 160 °C
COc1cccc(Nc2nc3ccccc3s2)c1	117 to 119 °C
O=C(O)CNC(=O)CC12CC3CC(CC(C3)C1)C2	165 to 167 °C
C#CCNC(=O)CCl	63 to 67 °C
O=C(O)Cc1ccc(Cl)cc1Br	126 to 128 °C
COC(=O)c1cc(S(=O)(=O)Cl)ccc1C	44 to 46 °C
N#CCCc1c(Cl)cccc1Cl	40 to 42 °C
O=C(Nc1ccc2c(c1)OCCO2)OCC(F)(F)F	103 to 105 °C
Nc1ccc(Cl)nc1C(=O)O	219 to 221 °C
Nc1cnc(Br)c(Br)c1	106 to 108 °C
Cc1ccc(C)c(N2C(=O)C=CC2=O)c1	79 to 81 °C
CC(=O)Nc1ccc(CO)cc1	117 to 119 °C
COc1ccc(-c2nnn(CC(=O)O)n2)cc1OC	259 to 261 °C
Cc1sc2nc(C)n(N)c(=O)c2c1C	204 to 206 °C
CCS(=O)(=O)c1ccc(Cl)cc1N	85 to 87 °C
CCN(CC)S(=O)(=O)c1ccc(N)cc1	99 to 101 °C
NC(=S)COc1ccc(Cl)cc1	107 to 111 °C
O=c1cc[nH]c2ccc(Br)cc12	286 to 288 °C
Cc1csc2nc(CCl)cc(=O)n12	100 to 104 °C
